Molecules are shown by their SMILES.

The melting point is the temperature, or range, at which the solid turns liquid.

Consider `CN1c2ccccc2C2CCN(CCC(C(=O)N3CCCCCC3)c3ccccc3)CC21` (stereo unspecified), for which the melting point was 150 °C.
Then `CCc1ccc(C=O)nc1`, with 138 to 140 °C.
Then `CC(C)C1COCc2nc3c(N)nc4cc(OCCN5CCOCC5)ccc4c3n21` (stereo unspecified), with 194 to 195 °C; and `CCOC(=O)Nc1c(-c2ccccc2)c2cc(Cl)ccc2n1C`, with 123 to 124 °C; and `CC(C)Cn1c(CNC(=O)OC(C)(C)C)c(-c2ccccc2)c2cc(OC(C)(C)C(N)=O)ccc2c1=O`, with 219 to 220 °C.
Then `c1cc(-n2ccnc2)nc(-n2cnc3cc(-c4ccoc4)ccc32)c1`, with 170 to 173 °C; and `O=C(O)c1ccccc1Nc1ccncc1`, with 275 to 280 °C.
As to `COC(=O)/C=C/c1cc2c(-c3ccccc3)c(CC(=O)Nc3ccc(F)cc3C(F)(F)F)c(=O)oc2cc1C`, the melting point lay in the range of 233 to 236 °C.
As for `Cc1nc(C(F)(F)F)ccc1C(=O)C1=C(Sc2ccc(Cl)cc2)C2CCC(C2)C1=O` (stereo unspecified), the figure is 130 to 131 °C.
As for `CCOC(=O)/C=C/c1cn(-c2ccccc2)nc1OCc1ccc(OCc2nc(-c3ccco3)oc2C)c(OC)c1`, the figure is 177 to 178 °C.
Then `COc1ccc(CC2=Cc3ncccc3Nc3cccnc32)cc1`, with 124 to 127 °C; and `CCOC(=O)c1ccc(OCCCCC2CC3=C(C2)C(=O)C(OC)=C(OC)C3=O)cc1`, with 97 to 99 °C.
As to `O=C1CCC(O)(c2ccc(F)c(F)c2)CC1`, the melting point was in the range of 84 to 85 °C.
Then `CCCCc1nc2c(c(=O)[nH]1)CN(C(=O)OCC[Si](C)(C)C)CC2`, with 152 to 155 °C; and `O=C(O)c1ccc(-c2ccc(C(=O)O)cc2-c2nc3ccccc3[nH]2)c(-c2nc3ccccc3[nH]2)c1`, with more than 400 °C.
The compound `CCCOc1ccccc1-c1cc(C)c(C(=O)OC)c(=O)[nH]1` showed a melting point of 167 to 169 °C.
`COc1ccc(C(=O)Cc2cc(OC)ccc2OC)cc1` had a melting point of 108 to 111 °C.
Then `CC(C)(C)c1ncc(C=O)cn1`, with 82 to 83 °C; and `CCN(CC)c1cccc(NC(=O)COC(C)=O)c1C#N`, with 50 to 51 °C; and `COc1ccc(N2CCN(c3ccc(N4C(=O)NC(C)(C)C4=O)cc3)CC2)cc1`, with 255 °C.
Then `COc1ccc(-c2ccc(C(=O)O)c(C(=O)O)c2)c2c1OCCO2`, with 192 to 196 °C; and `Cc1nn(Cc2ccccc2)c(C)c1CC(=O)O`, with 119 to 121 °C.
Then `CCc1nc2c(N)nc3ccccc3c2n1OC(C)C`, with 242 to 243 °C; and `N=c1ccccn1CC(O)COc1cccc2ccccc12` (stereo unspecified), with 138 to 141 °C.
In turn, `O=C(CCc1cnoc1-c1ccccc1)Nc1ccc2ncccc2c1` showed a melting point of 170 to 171 °C.
As for `CCc1cn(-c2ncccn2)c2c1C(=O)CC(C)(C)C2`, the figure is 111 to 114 °C; as for `CC(=O)C1CCC2C3CCC4CC(O)(Cc5ccccc5)CCC4(C)C3CCC12C` (stereo unspecified), 133 to 141 °C.
As for `CCCNCCOc1ccc(NC(=O)c2n[nH]c3c2C(=O)CCC3)cn1`, the melting point was 120 °C.
Then `O=C(Nc1nccs1)C(CC1CCCC1)c1ccc(-c2ccncc2)cc1` (stereo unspecified), with 165 to 167 °C.
As for `Nc1ccc(-c2nc3c(F)cccc3s2)cc1`, the figure is 219 to 221 °C; as for `Cc1cc(F)cc(C)c1Cl`, 64 to 65 °C; as for `CCOC(=O)c1cc2c(C(F)(F)F)coc2nc1C(=O)OCC`, 50 to 55 °C.
Compound `O=C(O)[C@H](Oc1c(Br)cc(-c2c3ccccc3c(Br)c3sc4ccccc4c23)cc1Br)c1ccccc1` showed a melting point of 135 to 137 °C.
`NCCCCCCCCCCCCCCCCCCCCCC(=O)O` displayed a melting point of 166 to 168 °C.
Regarding `COc1cc2c(c(Cl)c1Cl)CCCC2`, the melting point was in the range of 67 to 68.5 °C.
Regarding `O=C(O)c1cc2cc(O)ccc2o1`, the melting point fell in the range of 223 to 228 °C.
As for `C=C1CCCC2CCC3C(CCC4(C)C3C(C#N)C35OCCOC43OCCO5)C12C` (stereo unspecified), the figure is 229 °C; as for `CN(Cc1ccccc1)C(=O)Nc1ccc(CN2C(=O)C3CCCC3N(C(=O)CN3C(=O)c4ccccc4C3=O)c3ccccc32)cc1` (stereo unspecified), 156 to 158 °C; as for `O=C(CCCCCN1CCN(c2ccc3c(c2)CCC3)CC1)N1Cc2ccccc2C1`, 131 °C.
As for `O=C(C(=O)c1ccc(F)c(CF)c1)c1ccc(OC(F)F)cc1`, the figure is 68 to 70 °C; as for `COc1ccc(-c2ccc(N3CCCN(c4ccc(-c5ccc(OC)cc5)cn4)CC3)nc2)cc1`, 254 to 256 °C.
Then `CC(=O)Nc1ccc(C)cc1Oc1c([N+](=O)[O-])cc(C(=O)O)cc1S(N)(=O)=O`, with 238 to 240 °C; and `COc1cc(C)ccc1-c1cc2ccccc2[nH]1`, with 125 °C.
For the compound `Cc1ccccc1C1=NC(C)(C)OC1c1ccc(N(C)C)cc1` (stereo unspecified), the melting point lay in the range of 89 to 90 °C.
Then `CCn1ncc2c(O)c(C(=O)O)c(CCc3ccccc3)nc21`, with 160 to 161 °C; and `CCN(C(=S)Nc1cc(Cl)ccc1C)c1c(C)nn(C)c1C`, with 144 to 145 °C.
Then `Nc1nc2c(ncn2C2C=CC(CO)C2)c(=S)[nH]1` (stereo unspecified), with more than 250 °C; and `Nc1ccc2c(c1)CC(CC(=O)O)C2=O` (stereo unspecified), with 192 to 194 °C.
As for `Cc1c[nH]c2c(NC(=O)c3c(Cl)cccc3Cl)cccc2c1=O`, the figure is more than 300 °C; as for `CC(C)NCC(O)c1ccc(N)c(C#N)c1` (stereo unspecified), 159 to 161 °C.
For `Cc1noc(CC(N)=O)n1`, the melting point lay in the range of 77 to 77.5 °C.
Then `Cc1[nH]c(=O)cc2c1CC(c1ccccn1)CC2` (stereo unspecified), with 260 °C; and `CN(CCN1CCOCC1)c1noc2cc(O)ccc12`, with 91 to 92 °C.
Then `Cc1cc(OCCCCOCc2ccccc2)cc(C)c1N=Nc1ccc([N+](=O)[O-])cc1`, with 68 to 69.5 °C; and `COc1ccc(-c2nc3cc(Cl)c(Cl)cc3n2C(=O)OCc2ccccc2)cc1NS(=O)(=O)c1cccs1`, with 195 to 198 °C.
For the compound `Cc1cccc(N2CCN(c3ccc(=O)[nH]n3)CC2)c1`, the melting point worked out at 210 °C.
As for `CC(=O)Nc1ccc(-c2ccc3nc(-c4cccnc4N)n(-c4ccc(CN)cc4)c3n2)cc1`, the figure is 245 to 248 °C; as for `Cc1nc2c(c3c1[nH]c1cccc(F)c13)C(=O)CC(C)(C)C2`, 246 to 247 °C; as for `CCOC(C)Oc1cnc(C(C)C)nc1O` (stereo unspecified), 70 °C.
`Nc1cnn2c1NCC2` gave a melting point of 177 to 179 °C.
Then `OCc1cc(-c2ccc(Cl)cc2)nc2ccnn12`, with 185 to 186 °C; and `N#Cc1sc2ncccc2c1Cl`, with 144 to 145 °C; and `CCCCCCCCCCCCCCCCCCOc1cc(N)cc([N+](=O)[O-])c1`, with 106 to 108 °C.
Then `CC(=O)OCC(=O)C12OCOC1CC1C3CCC4=CC(=O)CCC4(C)C3(Cl)C(O)CC12C` (stereo unspecified), with 231 °C.
As for `Nc1nc(Cn2c(-c3ccc(Oc4cncnc4)cc3)ccc2-c2ccccc2Cl)ccc1OCCO`, the figure is 78 to 81 °C; as for `O=C(NC(=O)N1C(=O)Cc2ccccc21)C1CCCCC1`, 144 to 146 °C; as for `CC(=O)NC[C@H]1CN(c2ccc(-c3ccncc3)c(F)c2)C(=O)O1`, 179 to 180 °C.
In turn, `CCOc1c(C23OCC(C)(C)C2(C(C)(C)C)OO3)sc2ccc(O[Si](C)(C)C(C)(C)C)cc12` (stereo unspecified) gave a melting point of 106 to 107 °C.
Then `COc1ccc2c(c1)CCC1C2CCC2(C)C1CCC2N(C=O)CCN(C)C` (stereo unspecified), with 98 to 100 °C; and `CC(=O)NC(C)c1ccc(CN2CCN(c3ccc(F)cc3F)CC2)cc1` (stereo unspecified), with 109 to 111 °C.
Then `Oc1ccc(-c2nnn(-c3ccc(C(F)(F)F)cc3F)c2Cl)c(Cl)c1`, with 150 to 152 °C.
Then `CC(=O)N(C(C)=O)c1nc2n(n1)CCc1ccccc1-2`, with 139 to 140 °C; and `CCOC(=O)C(C)Oc1ccc(OCc2ccccc2)cc1F` (stereo unspecified), with 63 °C; and `CN(C)CCOc1ccc2cc3ncc(C#N)c(Nc4ccc(Cl)cc4Cl)c3cc2c1`, with 115 to 117 °C.
`CCOC(=O)c1cn2c(n1)CNc1ccccc1-2` displayed a melting point of 206 to 208 °C.
As for `OC/C=C/c1ccc(O)cc1`, the figure is 116 to 118 °C; as for `CNCCOc1ccc2nc(SCc3ccc(Cl)cc3)sc2c1`, 56 to 58 °C; as for `COc1c(O)cccc1C=O`, 116 °C.
Then `CC(C)(C)C(=O)OCOC(=O)C1N2C(=O)C(NC(=O)C(N)c3ccccc3)C2SC1(C)C` (stereo unspecified), with 114 to 116 °C; and `COCCNC(=O)c1cc(-c2cccc3cc(Cc4cc(F)cc(Cl)c4)sc23)ccc1F`, with 84 to 85 °C.
Regarding `O=S(=O)(Nc1ccccc1OCCCN1CCC(OC(c2ccccc2)c2ccccc2)CC1)c1ccccc1`, the melting point was 131 to 132 °C.
As for `COC(=O)c1ccc(C(=O)Nc2ccc3ccc(Cl)nc3n2)cc1`, the figure is 275 °C; as for `CC(C)(C)Sc1c(CC(C)(C)C(=O)O)n(Cc2ccc(Cl)cc2)c2ccc(OCc3ccncc3)cc12`, 238 to 240 °C.
As for `CC(=O)N1CCc2sc(C)c(C(=O)CCCN3CCC(c4noc5cc(F)ccc45)CC3)c2C1`, the figure is 116 to 118 °C; as for `CCSN(C)C(=O)Nc1ccc(C)c(Cl)c1`, less than 50 °C; as for `COc1ccc(N2C(=O)O[C@H](CO)[C@@H]2C)cc1`, 99 to 101 °C.
Then `N#CC(NCCCO)c1ccc(F)cc1` (stereo unspecified), with 69 to 70 °C; and `COc1cc(C)c(C=CC(C)=CC=C(C)C(=O)O)c(C)c1C`, with 188 to 190 °C; and `Cc1ccc(C#N)c(OC(C)(C)C=O)c1`, with 57 to 59 °C.
Take `O=C1COCc2cc(-c3ccccc3)ccc21`: the melting point lay within 127 to 128 °C.
As for `CCCCCCC(CCC(=O)OC)n1cnc(NC(=O)c2ccccc2C(=O)O)c1` (stereo unspecified), the figure is 135 to 136 °C.

(Values after a melting point compilation (Tetko et al.; mined from patent text by program, amines drawn as free bases though some values may be those of a salt).)
